Literature values in patent US20050079136A1, “Aerosol formulations of delta tetrahydrocannabinol” (priority 2001, published 2005).

Tested on: children with cancer

CCCCCc1cc(O)c2c(c1)OC(C)(C)[C@@H]1CC=C(C)C[C@@H]21 [Δ^8 THC, Δ^8 Tetrahydrocannabinol]
incidence of nausea: greatly reduced | side effects: no significant side effects
